Source: PMC11144196, “Structural basis for human mitochondrial tRNA maturation” (Nature Communications, 2024)

Columns and labels:
TRNT1 [1] = molecular target: T1, TRNT1 (Homo sapiens, UniProt Q96Q11); experiment: differential scanning fluorimetry (SYPRO Orange); format: binding; settings: 5 uM protein, pH 7.5, 150 mM NaCl; thermal stabilisation
T1 construct: residues 42-434, no mitochondrial transport signal; N-terminal His6-TEV tag cleaved; E. coli KRX
T1 sequence (Q96Q11 42-434): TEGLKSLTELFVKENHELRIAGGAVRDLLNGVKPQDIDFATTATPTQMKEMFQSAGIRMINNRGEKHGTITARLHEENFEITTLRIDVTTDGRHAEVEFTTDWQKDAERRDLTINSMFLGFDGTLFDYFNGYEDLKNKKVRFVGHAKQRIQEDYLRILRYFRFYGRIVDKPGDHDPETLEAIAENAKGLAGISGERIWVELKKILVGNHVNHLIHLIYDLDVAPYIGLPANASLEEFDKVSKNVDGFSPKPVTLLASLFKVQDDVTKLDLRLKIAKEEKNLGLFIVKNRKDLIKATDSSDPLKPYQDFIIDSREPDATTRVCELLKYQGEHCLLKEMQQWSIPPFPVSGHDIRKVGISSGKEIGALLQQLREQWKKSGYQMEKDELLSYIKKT

TRNT1 [2] = molecular target: T1, TRNT1; experiment: cryo-EM structure; format: binding; settings: TRNT1 active site; complex with TRMT10C(SAH)/SDR5C1(NADH)/tRNA-Ile; 0.5 mM CDP, pH 8.0
[3] = molecular target: T2, TRMT10C/SDR5C1 complex (NADH site in SDR5C1) (Homo sapiens, UniProt Q99714); experiment: differential scanning fluorimetry (SYPRO Orange); format: binding; settings: 5 uM protein, pH 7.5, 150 mM NaCl; thermal stabilisation
T2 construct: gene HSD17B10; SDR5C1 residues 1-261 co-expressed with TRMT10C residues 40-403 in E. coli; SDR5C1 tetramer; HisTrap purified; with tRNA methyltransferase 10 homolog C
T2 sequence (Q99714 1-261): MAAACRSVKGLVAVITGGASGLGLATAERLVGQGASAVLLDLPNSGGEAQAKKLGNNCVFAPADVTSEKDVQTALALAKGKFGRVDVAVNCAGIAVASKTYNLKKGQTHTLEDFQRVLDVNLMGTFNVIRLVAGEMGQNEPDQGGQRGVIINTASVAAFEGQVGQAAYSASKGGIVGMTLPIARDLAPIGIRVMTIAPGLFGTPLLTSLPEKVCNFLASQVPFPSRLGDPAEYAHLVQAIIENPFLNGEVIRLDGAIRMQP
T2 sequence (Q7L0Y3 40-403 partner): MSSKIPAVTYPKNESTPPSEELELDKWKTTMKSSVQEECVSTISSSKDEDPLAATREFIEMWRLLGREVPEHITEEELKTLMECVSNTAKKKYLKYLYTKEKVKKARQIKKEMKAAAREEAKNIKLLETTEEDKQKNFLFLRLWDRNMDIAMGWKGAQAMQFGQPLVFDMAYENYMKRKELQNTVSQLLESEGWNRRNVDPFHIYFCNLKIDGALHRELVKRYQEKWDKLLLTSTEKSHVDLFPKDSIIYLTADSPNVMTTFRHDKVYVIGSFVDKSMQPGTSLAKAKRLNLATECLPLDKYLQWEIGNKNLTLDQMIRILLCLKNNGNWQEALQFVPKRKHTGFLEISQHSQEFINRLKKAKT

[4] = molecular target: T3, TRMT10C/SDR5C1 complex (SAM/SAH site in TRMT10C) (Homo sapiens, UniProt Q7L0Y3); experiment: differential scanning fluorimetry (SYPRO Orange); format: binding; settings: 5 uM protein, pH 7.5, 150 mM NaCl; thermal stabilisation
T3 construct: TRMT10C residues 40-403 (no mitochondrial transport signal) co-expressed with SDR5C1 residues 1-261 in E. coli; 2:4 TRMT10C:SDR5C1; HisTrap purified; with 3-hydroxyacyl-CoA dehydrogenase type-2
T3 sequence (Q7L0Y3 40-403): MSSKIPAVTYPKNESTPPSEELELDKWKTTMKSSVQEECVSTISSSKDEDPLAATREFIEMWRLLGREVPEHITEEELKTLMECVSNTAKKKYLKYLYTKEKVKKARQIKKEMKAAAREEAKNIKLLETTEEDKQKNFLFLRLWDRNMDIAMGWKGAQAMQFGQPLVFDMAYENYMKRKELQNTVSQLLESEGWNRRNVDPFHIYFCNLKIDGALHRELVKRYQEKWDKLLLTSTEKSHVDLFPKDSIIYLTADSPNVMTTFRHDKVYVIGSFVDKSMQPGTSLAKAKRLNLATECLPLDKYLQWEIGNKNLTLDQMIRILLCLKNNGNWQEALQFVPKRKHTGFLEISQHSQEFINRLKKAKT
T3 sequence (Q99714 1-261 partner): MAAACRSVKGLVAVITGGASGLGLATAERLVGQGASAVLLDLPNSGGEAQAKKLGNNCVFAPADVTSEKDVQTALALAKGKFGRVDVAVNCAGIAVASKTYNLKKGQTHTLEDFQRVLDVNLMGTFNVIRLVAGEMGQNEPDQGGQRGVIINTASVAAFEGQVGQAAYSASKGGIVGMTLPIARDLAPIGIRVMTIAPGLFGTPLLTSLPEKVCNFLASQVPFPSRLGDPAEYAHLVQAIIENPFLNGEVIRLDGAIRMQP

[5] = molecular target: T3, TRMT10C/SDR5C1 complex (SAM/SAH site in TRMT10C); experiment: cryo-EM structure; format: binding; settings: methyltransferase active site of TRMT10C; with NADH and pre-tRNA-Ile (8CBO); also with PRORP D479A (8CBK), ELAC2 H548A (8CBL) or TRNT1 (8CBM)
[6] = molecular target: T3, TRMT10C/SDR5C1 complex (SAM/SAH site in TRMT10C); experiment: 3H-methyl transfer to pre-tRNA, scintillation counting; format: biochemical; settings: pre-tRNA-Ile (G9) or pre-tRNA-His-Ser (A9), pH 8.5, 5 mM MgCl2, 37 °C; labelled compound
[7] = molecular target: T4, ELAC2 H548A (residues 31-826) (human, UniProt Q9BQ52 31-826, H548A); experiment: cryo-EM structure; Complex 3: 1 uM TRMT10C/SDR5C1, 10 uM SAH, 10 uM NADH, 5 uM pre-tRNA^His(0,Ser), then 5 uM ELAC2 H548A; 50 mM Tris pH 8.0, 100 mM NaCl, 1 mM TCEP; ELAC2 sits on the pre-tRNA held by the subcomplex; settings: both partners purified
T4 construct: human ELAC2 (long-form RNase Z), UniProt Q9BQ52, residues 31-826; pET28a-derived vector, His6-TEV site; treated with TEV protease; also called mt-RNase Z; source: E. coli KRX, purified like WT (HisTrap, Resource Q, TEV, SEC); not shown: His6, N-terminal, cleaved
T4 sequence (looked up): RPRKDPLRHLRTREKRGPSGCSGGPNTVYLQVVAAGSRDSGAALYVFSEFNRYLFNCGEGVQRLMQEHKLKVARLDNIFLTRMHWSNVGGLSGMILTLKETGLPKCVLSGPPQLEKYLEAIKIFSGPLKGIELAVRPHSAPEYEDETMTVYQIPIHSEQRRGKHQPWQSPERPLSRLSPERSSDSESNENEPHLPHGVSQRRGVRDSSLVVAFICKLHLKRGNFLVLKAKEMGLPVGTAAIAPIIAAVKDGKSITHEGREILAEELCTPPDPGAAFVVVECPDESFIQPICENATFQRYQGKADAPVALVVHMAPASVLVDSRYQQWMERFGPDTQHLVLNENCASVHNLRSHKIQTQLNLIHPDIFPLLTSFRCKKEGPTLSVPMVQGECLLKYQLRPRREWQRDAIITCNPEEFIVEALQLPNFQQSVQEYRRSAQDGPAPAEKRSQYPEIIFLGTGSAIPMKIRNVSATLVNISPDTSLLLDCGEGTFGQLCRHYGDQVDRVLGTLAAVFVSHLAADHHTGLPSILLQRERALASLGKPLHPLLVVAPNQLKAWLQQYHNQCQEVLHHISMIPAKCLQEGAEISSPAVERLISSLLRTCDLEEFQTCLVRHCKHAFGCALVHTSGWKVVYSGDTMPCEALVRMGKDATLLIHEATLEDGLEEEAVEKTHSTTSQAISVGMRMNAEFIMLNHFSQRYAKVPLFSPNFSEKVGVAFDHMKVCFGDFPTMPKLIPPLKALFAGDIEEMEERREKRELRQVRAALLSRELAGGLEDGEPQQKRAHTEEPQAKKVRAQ

[8] = molecular target: T5, PRORP D479A (residues 45-583) (human, UniProt O15091 45-583, D479A); experiment: cryo-EM structure; Complex 2: 4 uM TRMT10C/SDR5C1, 40 uM SAH, 40 uM NADH, 20 uM pre-tRNA^His-Ser, then 10 uM PRORP D479A; 50 mM Tris pH 8.0, 100 mM NaCl, 1 mM TCEP; PRORP sits on the pre-tRNA held by the subcomplex; settings: both partners purified
T5 construct: human PRORP (protein-only RNase P endoribonuclease), UniProt O15091, residues 45-583; pET28a-derived vector, His6-TEV site; treated with TEV protease; source: E. coli BL21(DE3) Rosetta, purified like WT (HisTrap, TEV, SEC); not shown: His6, N-terminal, cleaved
T5 sequence (looked up): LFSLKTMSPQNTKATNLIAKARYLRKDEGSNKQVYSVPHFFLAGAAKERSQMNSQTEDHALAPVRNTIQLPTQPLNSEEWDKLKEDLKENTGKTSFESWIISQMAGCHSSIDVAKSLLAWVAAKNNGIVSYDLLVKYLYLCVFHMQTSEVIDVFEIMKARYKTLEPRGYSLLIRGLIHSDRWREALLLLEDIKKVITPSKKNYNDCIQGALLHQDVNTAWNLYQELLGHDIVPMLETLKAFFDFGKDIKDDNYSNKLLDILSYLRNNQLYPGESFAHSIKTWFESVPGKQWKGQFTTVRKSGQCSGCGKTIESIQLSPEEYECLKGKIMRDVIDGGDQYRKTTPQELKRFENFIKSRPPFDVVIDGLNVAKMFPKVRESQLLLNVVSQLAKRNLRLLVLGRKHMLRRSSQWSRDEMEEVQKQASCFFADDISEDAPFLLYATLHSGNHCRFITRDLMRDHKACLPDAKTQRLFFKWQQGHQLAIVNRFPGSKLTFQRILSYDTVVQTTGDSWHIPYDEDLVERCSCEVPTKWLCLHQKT

Nc1ncnc2c1ncn2[C@@H]1O[C@H](COP(=O)(O)OP(=O)(O)OP(=O)(O)O)[C@@H](O)[C@H]1O [ATP]
Tm (TRNT1 [1]): CTP, ATP or CDP to TRNT1 stabilised these enzymes

Nc1ccn([C@@H]2O[C@H](COP(=O)(O)OP(=O)(O)O)[C@@H](O)[C@H]2O)c(=O)n1 [CDP]
cryo-EM structure (TRNT1 [2]): a molecule of CDP that is likely π-stacked with the substrate A73 nucleotide
Tm (TRNT1 [1]): CTP, ATP or CDP to TRNT1 stabilised these enzymes

Nc1ccn([C@@H]2O[C@H](COP(=O)(O)OP(=O)(O)OP(=O)(O)O)[C@@H](O)[C@H]2O)c(=O)n1 [CTP]
Tm (TRNT1 [1]): CTP, ATP or CDP to TRNT1 stabilised these enzymes

NC(=O)C1=CN([C@@H]2O[C@H](COP(=O)(O)OP(=O)(O)OC[C@H]3O[C@@H](n4cnc5c(N)ncnc54)[C@H](O)[C@@H]3O)[C@@H](O)[C@H]2O)C=CC1 [NADH]
Tm [3]: NADH to SDR5C1 and CTP, ATP or CDP to TRNT1 stabilised these enzymes

Nc1ncnc2c1ncn2[C@@H]1O[C@H](CSCC[C@H](N)C(=O)O)[C@@H](O)[C@H]1O [SAH]
Tm [4]: addition of co-factors or co-factor analogues, i.e. SAH to TRMT10C
cryo-EM structure [5]: In all the structures, the TRMT10C catalytic pocket contains SAH

C[S+](CC[C@H](N)C(=O)O)C[C@H]1O[C@@H](n2cnc3c(N)ncnc32)[C@H](O)[C@@H]1O (stereo partly shown) [SAM]
3H-methyl transfer to pre-tRNA, scintillation counting [6]: Methylation assays, using ^3H-SAM as methyl donor, showed that the TRMT10C/SDR5C1 complex methylates

B1: TRMT10C (residues 40-403, without the mitochondrial transport signal) (enzyme, human, UniProt Q7L0Y3 40-403, looked up)
chain: MSSKIPAVTYPKNESTPPSEELELDKWKTTMKSSVQEECVSTISSSKDEDPLAATREFIEMWRLLGREVPEHITEEELKTLMECVSNTAKKKYLKYLYTKEKVKKARQIKKEMKAAAREEAKNIKLLETTEEDKQKNFLFLRLWDRNMDIAMGWKGAQAMQFGQPLVFDMAYENYMKRKELQNTVSQLLESEGWNRRNVDPFHIYFCNLKIDGALHRELVKRYQEKWDKLLLTSTEKSHVDLFPKDSIIYLTADSPNVMTTFRHDKVYVIGSFVDKSMQPGTSLAKAKRLNLATECLPLDKYLQWEIGNKNLTLDQMIRILLCLKNNGNWQEALQFVPKRKHTGFLEISQHSQEFINRLKKAKT
notes: human TRMT10C, tRNA methyltransferase of mitochondrial RNase P, UniProt Q7L0Y3, residues 40-403; The subcomplex was purified on a HisTrap column; also called MTase; source: E. coli BL21(DE3) Rosetta, co-expressed with SDR5C1, purified (HisTrap, SEC, heparin, SEC)
binding result [7]: binds
binding result [8]: binds
